# Paper PMC4640066 (Nature Communications, 2015)
# Assays:
# [1] = molecular target: T1, γ-TuSC (Saccharomyces cerevisiae, UniProt P53378); assay: γ-TuSC-stimulated MT polymerization in vitro; assay type: biochemical; details: same concentration as ineffective on glutamate, paclitaxel and Tau-induced MT formation
# T1 construct: made in house; host or cells: HighFive insect cells
# T1 sequence (P53378 1-473): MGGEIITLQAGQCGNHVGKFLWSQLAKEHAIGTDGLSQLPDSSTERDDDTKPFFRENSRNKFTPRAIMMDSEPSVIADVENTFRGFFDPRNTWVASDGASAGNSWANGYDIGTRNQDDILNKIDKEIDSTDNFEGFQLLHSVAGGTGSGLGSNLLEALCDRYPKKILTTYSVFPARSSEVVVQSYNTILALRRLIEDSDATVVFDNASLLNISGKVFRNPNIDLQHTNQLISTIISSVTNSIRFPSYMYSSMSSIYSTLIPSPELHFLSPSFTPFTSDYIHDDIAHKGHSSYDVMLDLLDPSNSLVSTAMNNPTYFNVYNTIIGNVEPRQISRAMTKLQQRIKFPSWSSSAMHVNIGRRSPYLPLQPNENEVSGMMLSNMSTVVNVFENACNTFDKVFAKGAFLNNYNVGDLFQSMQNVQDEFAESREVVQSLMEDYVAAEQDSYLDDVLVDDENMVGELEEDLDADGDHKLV
# T1 sequence (P38863 1-823 partner): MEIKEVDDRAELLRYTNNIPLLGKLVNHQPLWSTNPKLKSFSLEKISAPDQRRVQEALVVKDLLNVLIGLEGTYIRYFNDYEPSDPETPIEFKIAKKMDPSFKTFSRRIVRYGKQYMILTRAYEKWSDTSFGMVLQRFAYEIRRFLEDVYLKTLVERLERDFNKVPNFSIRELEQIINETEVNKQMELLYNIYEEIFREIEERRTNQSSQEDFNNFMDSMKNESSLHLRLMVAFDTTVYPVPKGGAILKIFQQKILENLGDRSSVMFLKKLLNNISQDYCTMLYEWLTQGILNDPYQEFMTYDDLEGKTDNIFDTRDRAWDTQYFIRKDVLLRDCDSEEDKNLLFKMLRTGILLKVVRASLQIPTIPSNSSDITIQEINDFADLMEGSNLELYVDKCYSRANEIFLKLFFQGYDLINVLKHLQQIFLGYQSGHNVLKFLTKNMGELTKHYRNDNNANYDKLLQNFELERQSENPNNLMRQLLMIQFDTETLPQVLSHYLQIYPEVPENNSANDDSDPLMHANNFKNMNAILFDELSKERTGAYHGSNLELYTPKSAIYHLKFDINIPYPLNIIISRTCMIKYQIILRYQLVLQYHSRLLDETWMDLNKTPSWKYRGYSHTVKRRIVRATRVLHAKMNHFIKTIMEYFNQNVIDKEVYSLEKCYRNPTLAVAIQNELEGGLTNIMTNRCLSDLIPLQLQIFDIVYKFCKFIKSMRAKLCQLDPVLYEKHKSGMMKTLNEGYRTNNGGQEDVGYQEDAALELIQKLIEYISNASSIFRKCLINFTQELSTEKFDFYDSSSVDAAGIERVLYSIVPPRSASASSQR
# T1 sequence (P53540 1-846 partner): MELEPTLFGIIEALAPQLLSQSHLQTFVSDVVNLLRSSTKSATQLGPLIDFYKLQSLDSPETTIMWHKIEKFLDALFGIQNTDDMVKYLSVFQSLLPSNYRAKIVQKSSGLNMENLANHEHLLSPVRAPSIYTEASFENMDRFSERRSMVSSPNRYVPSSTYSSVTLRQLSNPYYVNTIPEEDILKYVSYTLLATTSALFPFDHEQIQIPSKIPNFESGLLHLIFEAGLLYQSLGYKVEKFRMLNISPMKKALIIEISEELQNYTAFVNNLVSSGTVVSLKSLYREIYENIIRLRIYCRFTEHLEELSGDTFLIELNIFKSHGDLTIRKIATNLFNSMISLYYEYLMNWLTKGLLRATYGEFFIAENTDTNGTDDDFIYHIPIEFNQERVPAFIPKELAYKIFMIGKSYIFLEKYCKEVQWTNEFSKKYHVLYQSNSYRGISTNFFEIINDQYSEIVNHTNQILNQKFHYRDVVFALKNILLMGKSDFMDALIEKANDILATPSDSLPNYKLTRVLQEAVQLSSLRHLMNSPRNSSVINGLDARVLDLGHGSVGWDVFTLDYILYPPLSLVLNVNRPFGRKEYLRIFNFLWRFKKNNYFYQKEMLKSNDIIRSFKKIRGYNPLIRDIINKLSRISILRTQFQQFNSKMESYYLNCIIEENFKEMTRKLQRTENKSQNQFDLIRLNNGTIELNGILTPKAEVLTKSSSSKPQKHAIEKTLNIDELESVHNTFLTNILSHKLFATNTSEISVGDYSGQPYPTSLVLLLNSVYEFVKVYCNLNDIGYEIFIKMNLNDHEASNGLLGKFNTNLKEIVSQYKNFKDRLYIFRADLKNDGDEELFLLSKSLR
# Method: For glutamate-stimulated MT polymerization, 1 mg ml^−1 porcine brain α/β-tubulin was mixed with glutamate (final concentration 1 M) and GTP (final concentration 1 mM) in RB buffer on ice. For paclitaxel-stimulated MT polymerization, 1 mg ml^−1 porcine brain α/β-tubulin was mixed with paclitaxel (final concentration 10 μM) and GTP (final concentration 1 mM) in RB buffer on ice. For recombinant Tau protein-stimulated MT polymerization, 1 mg ml^−1 α/β-tubulin purified from porcine brain and Tau protein were mixed with GTP (final concentration 1 mM) in RB buffer on ice. For γ-TuSC-stimulated MT polymerization, γ-TuSC was mixed with GTP (final concentration 1 mM). One of the compounds and α/β-tubulin were then added. Samples were transferred into cuvettes. Tubulin polymerization was monitored using the absorbance at 350 nm at 37 °C using a thermostatic spectrophotometer (Beckman Coulter).
# [2] = tested on: HeLa cells; assay: Transition from S phase to mitotic entry and spindle formation; assay type: cell-based, human; details: 30 μM
# Method: Cells expressing EGFP-α-tubulin and mCherry-H2B were prepared as described previously. Cells were arrested at the S phase with 2-mM thymidine treatment for 15 h. To determine the time required for mitotic entry from S phase release, thymidine was removed by washing cells with PBS three times. After treatment with 30 μM gatastatin for 9 h, time-lapse analysis was performed using DeltaVision Olympus IX71 microscope (Applied Precision) equipped with CoolSNAP HQ camera (Photometrics). Images were taken every 6 min with 12 z-stack (1 μm per stack). During live cell imaging, cells were maintained at 37 °C and were supplied with 5% CO2. The timing of the mitotic entry was defined by the chromosome condensation after nuclear envelope breakdown.
structure (smiles),measurement,setting,value
"COc1cc2c(=O)c(-c3cc(OC)c4c(c3OC)OCO4)coc2cc1OCc1ccccc1 [Gatastatin, O^7-demethylbenzyl AG1]",Effect on γ-TuSC-stimulated MT polymerization,[1],blocked γ-TuSC-stimulated MT polymerization
same,Mitotic cells with abnormal bipolar spindles with misaligned chromosomes,[2]; HeLa cells released from S phase (thymidine),~80%
same,Timing of mitotic entry versus DMSO,[2]; HeLa released from S phase,virtually identical
